Reference: patent US7208517B1, “Endothelin antagonists” (Abbott Labortories, priority 1994, dated 2007)

Key:
ETA Receptor = biological target: T1, ETA Receptor (Rattus norvegicus, UniProt P26684); test: [125I]ET-1 binding to membranes from MMQ cells (ETA receptor binding assay, Table 4); conditions: test compound at 1 μM; 0.1 nM [125I]ET-1, MMQ cell membranes, 4 hours at 25° C.; read-out: % Inhibition of ETA at 1 μM
T1 construct: endogenous in cells; host or cells: MMQ rat pituitary cells (membranes)
T1 sequence (P26684 21-426): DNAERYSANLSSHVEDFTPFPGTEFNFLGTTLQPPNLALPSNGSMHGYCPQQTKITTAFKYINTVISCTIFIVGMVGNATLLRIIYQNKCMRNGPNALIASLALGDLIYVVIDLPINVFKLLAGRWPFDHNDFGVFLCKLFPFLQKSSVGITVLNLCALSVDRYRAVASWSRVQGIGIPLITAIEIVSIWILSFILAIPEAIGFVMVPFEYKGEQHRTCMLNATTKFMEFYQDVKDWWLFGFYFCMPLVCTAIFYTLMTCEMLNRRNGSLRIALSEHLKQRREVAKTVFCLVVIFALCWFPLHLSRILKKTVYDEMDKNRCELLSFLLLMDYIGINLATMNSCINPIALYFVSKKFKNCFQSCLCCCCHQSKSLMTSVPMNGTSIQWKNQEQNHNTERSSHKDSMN

[1] = biological target: T2, ETB receptors of porcine cerebellar tissues (pET-B) (Sus scrofa, UniProt P35463); test: ETA/ETB selectivity: (125I)ET-3 competition binding, ETB assay in porcine cerebellum membranes (pET-B); conditions: porcine cerebellum membranes; 0.1 nM (125I)ET-3; read-out: pET-B IC50
T2 construct: porcine cerebellar tissues (known to contain ETB receptors); from tissue; host or cells: porcine cerebellum (membranes)
T2 sequence (P35463 27-443): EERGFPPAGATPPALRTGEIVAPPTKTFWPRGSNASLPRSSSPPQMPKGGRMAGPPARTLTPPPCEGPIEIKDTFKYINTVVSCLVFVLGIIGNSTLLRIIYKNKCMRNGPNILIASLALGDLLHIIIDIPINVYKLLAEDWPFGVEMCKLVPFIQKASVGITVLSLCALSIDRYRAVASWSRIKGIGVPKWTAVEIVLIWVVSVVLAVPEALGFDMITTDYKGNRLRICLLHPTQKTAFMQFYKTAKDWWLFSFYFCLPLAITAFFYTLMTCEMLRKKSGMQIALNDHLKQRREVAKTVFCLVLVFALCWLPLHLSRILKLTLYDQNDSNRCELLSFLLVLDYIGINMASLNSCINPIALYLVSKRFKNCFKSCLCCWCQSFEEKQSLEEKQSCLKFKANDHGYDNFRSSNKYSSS

| Compound | inhibition at 1 µM (ETA Receptor) | IC50 [1] |
| --- | --- | --- |
| CCCCN(CCCC)C(=O)CN1C[C@H](c2ccc3c(c2)OCO3)[C@@H](C(=O)O)[C@@H]1CC(C)(C)CCC [compound 537] | 97.2% | 5.9 µM |
| CCCC(CCC)N(C(=O)CN1CC(c2cc(OC)c3c(c2)OCO3)C(C(=O)O)C1CCC1OCCO1)c1ccc(F)c(C)c1 (centres unmarked) [compound 513] | 98% | 8.8 µM |
| CCCCN(CCCC)C(=O)CN1CC(c2ccc3c(c2)OCO3)C(C(=O)O)C1CC(C)(C)C=C(C)C (centres unmarked) [compound 506] | 99.7% | > 100 µM |
| CCCCN(CCCC)C(=O)CN1CC(c2ccc3c(c2)OCO3)C(C(=O)O)C1CC(C)(C)C1OCCO1 (centres unmarked) [compound 507] | 99.3% | > 100 µM |
| CCCCN(CCCC)C(=O)CN1CC(c2ccc3c(c2)OCO3)C(C(=O)O)C1CCc1ccccc1OC (centres unmarked) [compound 517] | 94.1% | 30 µM |
| CCCCN(CCCC)C(=O)CN1CC(c2ccc3c(c2)OCO3)C(C(=O)O)C1CCC1CCCCO1 (centres unmarked) [compound 505] | 95.8% | 60 µM |
| CCCCN(CCCC)C(=O)CN1CC(c2ccc3c(c2)OCO3)C(C(=O)O)C1CC(C)(C)CCC (centres unmarked) [compound 503] | 97% | 50 µM |
| CCCCN(CCCC)C(=O)CN1CC(c2ccc3c(c2)OCO3)C(C(=O)O)C1CCC1OCCO1 (centres unmarked) [compound 504] | 97.1% | > 100 µM |
| CCCCN(CCCO)C(=O)CN1CC(c2ccc3c(c2)OCO3)C(C(=O)O)C1c1ccc(OC)cc1 (centres unmarked) [compound 523] | 99% | 0.36 µM |
| CCCCN(C(=O)CN1CC(c2ccc3c(c2)OCO3)C(C(=O)O)C1c1ccc(OC)cc1)c1cccnc1 (centres unmarked) [compound 531] | 99.8% |  |
| CCCCN(CCCC)C(=O)CN1CC(c2cc(OC)c3c(c2)OCO3)C(C(=O)O)C1CCC1OCCO1 (centres unmarked) [compound 509] | 100% | 30 µM |
| CCCCN(CCCC)C(=O)CN1C[C@H](c2ccc3c(c2)CCO3)[C@@H](C(=O)O)[C@@H]1CC(C)(C)CCC [compound 515] | 99.1% | > 62 µM |
| CCCON(CCC)C(=O)CN1CC(c2ccc3c(c2)OCO3)C(C(=O)O)C1c1ccc(OC)cc1 (centres unmarked) [compound 524] | 99.2% | 1.7 µM |
| CCCCN(CCCC)C(=O)CN1CC(c2ccc3c(c2)OCO3)C(C(=O)O)C1COc1ccccc1OC (centres unmarked) [compound 510] | 100% | 35 µM |
| CCCCN(CCCC)C(=O)CN1CC(c2cc(OC)c3c(c2)OCO3)C(C(=O)O)C1CC(C)(C)C1OCCO1 (centres unmarked) [compound 516] | 99.7% | 29 µM |
